Assay results reported in ChEMBL document CHEMBL5523759, “Discovery of Novel HDAC3 Inhibitors with PD-L1 Downregulating/Degrading and Antitumor Immune Effects” (J Med Chem, 2024).
pIC50: −log10 of the molar value. Activity calls are given as the source filed them. The calls are words filed in the database; no cut-off is given here.

Tests used:
MCF7 = assay: cells; conditions: Homo sapiens, MCF7, 48 h
Description: Antiproliferative activity against human MCF7 cells assessed as reduction in cell viability measured for 48 hrs by MTT assay

Histone deacetylase 3 = Histone deacetylase 3 (Homo sapiens, UniProt O15379); assay: Inhibition of human recombinant HDAC3 using Ac-Leu-Gly-Lys (Ac)-AMC as substrate preincubated with compound for 10 mins followed by substrate addition and measured after 45 mins by TECAN microtiter plate reader analysis
Chain of Histone deacetylase 3 (O15379 whole entry): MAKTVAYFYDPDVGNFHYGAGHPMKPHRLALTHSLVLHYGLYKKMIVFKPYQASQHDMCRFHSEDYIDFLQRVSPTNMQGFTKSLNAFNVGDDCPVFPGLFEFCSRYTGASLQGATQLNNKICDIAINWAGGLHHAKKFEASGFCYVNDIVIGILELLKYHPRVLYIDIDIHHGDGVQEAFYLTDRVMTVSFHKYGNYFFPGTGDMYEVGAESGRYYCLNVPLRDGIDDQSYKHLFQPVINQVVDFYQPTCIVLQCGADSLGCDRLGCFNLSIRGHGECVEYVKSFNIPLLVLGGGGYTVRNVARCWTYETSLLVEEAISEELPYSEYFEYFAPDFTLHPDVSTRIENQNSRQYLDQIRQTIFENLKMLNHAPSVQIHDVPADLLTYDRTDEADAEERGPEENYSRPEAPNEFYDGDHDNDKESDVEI

[1] = target: T1, Protein deacetylase HDAC6 (Homo sapiens, UniProt Q9UBN7); assay: Inhibition of human recombinant HDAC6 using Ac-Leu-Gly-Lys (Ac)-AMC as substrate preincubated with compound for 10 mins followed by substrate addition and measured after 45 mins by TECAN microtiter plate reader analysis
T1 sequence (Q9UBN7 whole entry): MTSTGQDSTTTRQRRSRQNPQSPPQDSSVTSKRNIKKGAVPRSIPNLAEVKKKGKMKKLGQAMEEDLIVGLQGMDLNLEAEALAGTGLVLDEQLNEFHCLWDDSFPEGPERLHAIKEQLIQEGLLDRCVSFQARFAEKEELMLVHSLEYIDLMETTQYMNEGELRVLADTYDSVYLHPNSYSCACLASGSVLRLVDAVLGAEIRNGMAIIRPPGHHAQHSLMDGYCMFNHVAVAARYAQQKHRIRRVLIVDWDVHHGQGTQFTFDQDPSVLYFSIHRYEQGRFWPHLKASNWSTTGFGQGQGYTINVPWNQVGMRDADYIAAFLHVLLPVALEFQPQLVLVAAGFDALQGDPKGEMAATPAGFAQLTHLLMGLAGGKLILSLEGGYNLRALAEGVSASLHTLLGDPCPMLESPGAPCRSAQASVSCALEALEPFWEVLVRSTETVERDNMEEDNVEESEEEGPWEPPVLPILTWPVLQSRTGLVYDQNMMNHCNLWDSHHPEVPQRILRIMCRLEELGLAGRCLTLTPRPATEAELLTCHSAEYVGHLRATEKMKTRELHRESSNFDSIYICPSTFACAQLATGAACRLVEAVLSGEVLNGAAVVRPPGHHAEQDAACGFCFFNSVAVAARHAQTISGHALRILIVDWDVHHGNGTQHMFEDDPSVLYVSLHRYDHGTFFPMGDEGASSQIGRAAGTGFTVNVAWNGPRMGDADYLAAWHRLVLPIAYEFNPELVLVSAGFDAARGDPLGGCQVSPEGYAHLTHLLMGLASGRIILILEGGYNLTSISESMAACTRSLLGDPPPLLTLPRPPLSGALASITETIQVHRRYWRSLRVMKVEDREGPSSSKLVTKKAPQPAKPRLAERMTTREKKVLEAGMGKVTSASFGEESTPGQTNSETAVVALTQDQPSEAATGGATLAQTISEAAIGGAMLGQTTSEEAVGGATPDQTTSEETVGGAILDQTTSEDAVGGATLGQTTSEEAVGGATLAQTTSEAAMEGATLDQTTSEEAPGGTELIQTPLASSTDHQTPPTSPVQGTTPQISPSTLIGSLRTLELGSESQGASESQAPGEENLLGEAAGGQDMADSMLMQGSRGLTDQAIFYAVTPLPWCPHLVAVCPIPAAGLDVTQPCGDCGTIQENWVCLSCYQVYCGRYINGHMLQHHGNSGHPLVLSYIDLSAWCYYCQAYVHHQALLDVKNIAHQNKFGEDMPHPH

HCT-116 = assay: cells; conditions: Homo sapiens, HCT-116, 48 h
Description: Antiproliferative activity against human HCT-116 cells assessed as reduction in cell viability measured for 48 hrs by MTT assay

HepG2 = assay: Antiproliferative activity against human HepG2 cells assessed as reduction in cell viability measured for 48 hrs by MTT assay; assay type: functional, cell-based; conditions: HepG2, 48 h
Jurkat = assay: Antiproliferative activity against human Jurkat T cells assessed as reduction in cell viability measured for 48 hrs by CCK-8 assay; assay type: functional, cell-based
Histone deacetylase 7 = target: T2, Histone deacetylase 7 (Homo sapiens, UniProt Q8WUI4); assay: Inhibition of human recombinant HDAC7 using Ac-Leu-Gly-Lys (Tfa)-AMC as substrate preincubated with compound for 10 mins followed by substrate addition and measured after 45 mins by TECAN microtiter plate reader analysis
T2 sequence (Q8WUI4 whole entry): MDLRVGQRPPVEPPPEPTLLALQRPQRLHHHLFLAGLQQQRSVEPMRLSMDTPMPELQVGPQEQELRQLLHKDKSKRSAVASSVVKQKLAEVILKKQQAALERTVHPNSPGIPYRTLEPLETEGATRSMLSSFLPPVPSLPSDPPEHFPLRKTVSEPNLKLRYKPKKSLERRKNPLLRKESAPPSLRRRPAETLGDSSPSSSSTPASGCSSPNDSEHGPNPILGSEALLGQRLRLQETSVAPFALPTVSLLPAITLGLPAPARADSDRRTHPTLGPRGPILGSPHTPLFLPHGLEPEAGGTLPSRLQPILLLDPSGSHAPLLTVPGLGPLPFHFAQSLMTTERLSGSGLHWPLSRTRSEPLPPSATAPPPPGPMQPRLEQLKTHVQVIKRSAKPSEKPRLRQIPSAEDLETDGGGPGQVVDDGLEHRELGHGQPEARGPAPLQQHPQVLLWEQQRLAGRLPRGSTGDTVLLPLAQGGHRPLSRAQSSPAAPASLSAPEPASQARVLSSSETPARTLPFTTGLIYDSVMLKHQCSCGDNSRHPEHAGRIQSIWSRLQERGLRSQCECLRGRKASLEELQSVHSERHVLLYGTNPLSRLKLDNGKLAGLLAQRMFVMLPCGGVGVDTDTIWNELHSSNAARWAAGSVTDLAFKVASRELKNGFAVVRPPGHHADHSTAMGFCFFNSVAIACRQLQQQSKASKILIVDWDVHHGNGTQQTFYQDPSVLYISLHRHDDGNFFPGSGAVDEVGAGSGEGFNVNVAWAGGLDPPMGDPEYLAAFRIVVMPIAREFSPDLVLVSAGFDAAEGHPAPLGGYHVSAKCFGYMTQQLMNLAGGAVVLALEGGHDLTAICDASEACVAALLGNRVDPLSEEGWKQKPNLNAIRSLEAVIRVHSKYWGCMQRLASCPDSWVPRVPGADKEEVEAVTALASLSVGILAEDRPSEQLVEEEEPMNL

Histone deacetylase 1 = Histone deacetylase 1 (Homo sapiens, UniProt Q13547); assay: Inhibition of human recombinant HDAC1 using Ac-Leu-Gly-Lys (Ac)-AMC as substrate preincubated with compound for 10 mins followed by substrate addition and measured after 45 mins by TECAN microtiter plate reader analysis
Chain of Histone deacetylase 1 (Q13547 whole entry): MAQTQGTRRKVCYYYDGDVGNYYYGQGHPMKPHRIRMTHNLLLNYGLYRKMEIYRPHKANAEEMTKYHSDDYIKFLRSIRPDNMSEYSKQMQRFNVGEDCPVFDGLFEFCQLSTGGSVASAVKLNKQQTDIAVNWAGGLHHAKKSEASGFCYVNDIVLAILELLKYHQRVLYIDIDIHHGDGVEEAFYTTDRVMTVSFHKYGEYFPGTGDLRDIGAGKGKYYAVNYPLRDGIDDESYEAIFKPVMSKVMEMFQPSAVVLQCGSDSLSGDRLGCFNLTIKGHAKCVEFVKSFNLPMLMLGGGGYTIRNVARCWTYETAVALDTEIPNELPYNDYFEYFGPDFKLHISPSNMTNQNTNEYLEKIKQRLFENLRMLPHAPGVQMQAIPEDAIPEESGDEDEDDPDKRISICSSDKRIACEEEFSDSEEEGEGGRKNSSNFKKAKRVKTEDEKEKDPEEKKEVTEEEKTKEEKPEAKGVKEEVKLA

Histone deacetylase 8 = target: T3, Histone deacetylase 8 (Homo sapiens, UniProt Q9BY41); assay: Inhibition of human recombinant HDAC8 using Ac-Leu-Gly-Lys (Tfa)-AMC as substrate preincubated with compound for 10 mins followed by substrate addition and measured after 45 mins by TECAN microtiter plate reader analysis
T3 sequence (Q9BY41 whole entry): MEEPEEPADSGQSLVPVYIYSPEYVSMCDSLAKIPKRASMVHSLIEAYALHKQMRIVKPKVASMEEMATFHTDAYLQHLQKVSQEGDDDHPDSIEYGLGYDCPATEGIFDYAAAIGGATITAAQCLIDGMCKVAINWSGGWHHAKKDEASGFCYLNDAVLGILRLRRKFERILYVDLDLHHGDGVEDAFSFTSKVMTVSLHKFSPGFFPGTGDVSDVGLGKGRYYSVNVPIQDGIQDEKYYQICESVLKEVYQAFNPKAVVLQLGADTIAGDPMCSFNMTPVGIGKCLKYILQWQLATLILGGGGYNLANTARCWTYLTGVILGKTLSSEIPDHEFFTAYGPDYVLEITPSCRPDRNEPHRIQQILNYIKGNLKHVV

B16-F10 [2] = assay: Antiproliferative activity against mouse B16-F10 cells assessed as reduction in cell viability measured for 48 hrs by MTT assay; assay type: functional, cell-based; conditions: B16-F10, 48 h
B16-F10 [3] = assay: Antitumor activity against mouse B16-F10 cells implanted in C57BL/6 mouse model assessed as tumor growth inhibition at 25 mg/kg, IG administered for 9 days; assay type: functional; conditions: B16-F10, po, 216 h, time 9 day, read-out: TGI
B16-F10 [4] = assay: Antitumor activity against mouse B16-F10 cells implanted in C57BL/6 mouse model assessed as upregulation of Ac-H3 expression at 25 mg/kg, po administered for 9 days by Western blot analysis; assay type: functional, organism-based; conditions: time 9.0 day
B16-F10 [5] = assay: Antitumor immunity against mouse B16-F10 cells implanted in C57BL/6 mouse model assessed as increase in CD3+ CD8+ T cells at 25 mg/kg, po administered for 9 days (reference value: 1.01%); assay type: functional; conditions: time 9 day
B16-F10 [6] = assay: Antitumor immunity against mouse B16-F10 cells implanted in C57BL/6 mouse model assessed as increase in CD3+ CD4+ T cells at 25 mg/kg, po administered for 9 days (reference value: 1.50%); assay type: functional; conditions: time 9 day
B16-F10 [7] = assay: Antitumor activity against mouse B16-F10 cells implanted in C57BL/6 mouse model assessed as increase in Ac-H3 expression in tumor at 25 mg/kg, po administered for 9 days by Western blot analysis; assay type: functional, organism-based; conditions: time 9.0 day

## Nc1ccccc1NC(=O)/C=C/c1ccc(CNC(=O)c2ccc(-c3ncc(CNc4ccccc4)s3)cc2)cc1
MCF7
  pIC50: 5.35
Histone deacetylase 3
  pIC50: 6.85
[1]
  pIC50: < 5.00
HCT-116
  pIC50: < 5.00
HepG2
  pIC50: 6.13
Jurkat
  pIC50: 7.00
Histone deacetylase 7
  pIC50: < 5.00
Histone deacetylase 1
  pIC50: 6.14
Histone deacetylase 8
  pIC50: 5.04
B16-F10 [2]
  pIC50: 5.05

## Nc1ccccc1NC(=O)CCCCCCC(=O)Nc1ccc(-c2ncc(CNc3ccccc3)s2)cc1
Jurkat
  pIC50: 6.54

## Nc1ccccc1NC(=O)CCCNC(=O)c1ncc(CNc2ccccc2)s1
Jurkat
  pIC50: 6.25

## CCCNNC(=O)c1ncc(CNc2ccccc2)s1
Jurkat
  pIC50: < 5.00

## Nc1ccccc1NC(=O)c1ccc(CNC(=O)c2ncc(CNc3ccccc3)s2)cc1
MCF7
  pIC50: < 5.00
[1]
  pIC50: < 5.00
HCT-116
  pIC50: 5.80
HepG2
  pIC50: 6.29
Jurkat
  pIC50: 6.62
Histone deacetylase 7
  pIC50: < 5.00
Histone deacetylase 1
  pIC50: 6.64
Histone deacetylase 8
  pIC50: < 5.00
B16-F10 [2]
  pIC50: 5.49

## Nc1ccccc1NC(=O)c1ccc(CNC(=O)c2ccc(-c3ncc(CNc4ccccc4)s3)cc2)cc1
MCF7
  pIC50: 5.37
Histone deacetylase 3
  pIC50: 6.85
[1]
  pIC50: 5.08
HCT-116
  pIC50: 6.04
HepG2
  pIC50: 6.43
Jurkat
  pIC50: 7.10
Histone deacetylase 7
  pIC50: < 5.00
Histone deacetylase 1
  pIC50: 6.41
Histone deacetylase 8
  pIC50: < 5.00
B16-F10 [2]
  pIC50: 5.53

## Nc1ccccc1NC(=O)CCC(=O)Nc1ccc(-c2ncc(CNc3ccccc3)s2)cc1
Jurkat
  pIC50: < 5.00

## Nc1ccccc1NC(=O)c1ncc(CNc2ccccc2)s1
Jurkat
  pIC50: 6.40

## CCCNNC(=O)c1ccc(NC(=O)c2ncc(CNc3ccccc3)s2)cc1
Jurkat
  pIC50: 6.26

## CCCNNC(=O)CCNC(=O)c1ncc(CNc2ccccc2)s1
Jurkat
  pIC50: 5.32

## Cc1c(COc2cc(OCc3cccc(C#N)c3)c(CNC(C)(C)C(=O)O)cc2Cl)cccc1-c1ccccc1
B16-F10 [3]
  inhibition in vivo at 25 mg/kg: 67%
B16-F10 [4]
  Activity: inactive
B16-F10 [5]
  Activity: 3.28%
B16-F10 [6]
  Activity: 3.58%
B16-F10 [7]
  Activity: inactive

## CCCNNC(=O)CCCCCNC(=O)c1ncc(CNc2ccccc2)s1
Jurkat
  pIC50: < 5.00

## Nc1ccccc1NC(=O)c1ccc(NC(=O)c2ncc(CNc3ccccc3)s2)cc1
Jurkat
  pIC50: 5.60

## Nc1ccccc1NC(=O)CCCCCC(=O)Nc1ccc(-c2ncc(CNc3ccccc3)s2)cc1
MCF7
  pIC50: 5.10
Histone deacetylase 3
  pIC50: 6.82
[1]
  pIC50: 5.11
HCT-116
  pIC50: 5.18
HepG2
  pIC50: 5.80
Jurkat
  pIC50: 6.77
Histone deacetylase 7
  pIC50: < 5.00
Histone deacetylase 1
  pIC50: 6.47
Histone deacetylase 8
  pIC50: < 5.00
B16-F10 [2]
  pIC50: 5.14
